Results: US9364474B2, “Method for treatment of neurologic dysfunction” (MedDEV, Inc., priority 2004, dated 2016)
“Also recorded” adds a separate entry of the source. Like-named read-outs stand apart in the source and are kept apart here.

How the values were obtained:
MAO-A = conditions: Youdim & Sandler (1968); cited from earlier work
schizophrenic patients = conditions: Shepherd and Watt 1956; 0.75 mg per day; cited from earlier work
[1] = system: resting and evoked activity of the brain of patient with Autism; assay: Quantitative Electroencephalogram (qEEG, Neuroguide 2.5) in ASD patient; type: in vivo, human; conditions: ASD Example One
Description: In a paper by Thatcher et al, an Autistic signature was reported. […] Analysis was conducted using Neuroguide 2.5, a widely accepted and statistically valid instrument (Thatcher et al, 2003).

aldehyde dehydrogenase = conditions: literature; cited from earlier work
patient with Autism = assay: Case examples: patients with Autism (ASD), transdermal reserpine (with prior medication history); type: in vivo, human; conditions: for outcome of prior reserpine treatment: reserpine 0.01 mg/day
Description: The treatment composition is suitably applied in a single daily dose, e.g., 0.01 mg of the MAO-A agonist in 0.05 ml of spray solution applied once every morning.
Prior to administration of the present invention (transdermal reserpine), the patient's parents were provided with an informed consent documenting the potential risks, benefits and alternatives to this treatment. The patient was started on a dose of Reserpine at a 4× dilution resulting in a total dose of 0.01 mg. […] They were also given approximately 1400 mg of Calcium every morning.

Autistic children = conditions: cited from earlier work
[2] = system: patient suffering from depression
Description: The treatment composition is suitably applied in a single daily dose, e.g., 0.01 mg of the MAO-A agonist in 0.05 ml of transdermal cream applied once every morning. Caffeine may also be included in the composition to compensate for the anti-hypertensive effect of the preferred reserpine; the caffeine may suitably be included in an amount from about 50-100 mg/dose.
Treatment was in the form of 0.01 mg of reserpine per 0.05 ml of transdermal cream, applied transdermally once a day in the morning.
The treatment consisted of 0.01 mg of reserpine per 0.05 ml of cream, applied transdermally by rubbing the cream into the skin once a day in the morning.
The treatment consisted of 0.01 mg of the reserpine per 0.05 ml of cream, applied transdermally by rubbing the cream into the skin once a day in the morning.
The patient discontinued the use of nortriptyline and the same day started the treatment of the present invention, using 0.01 mg of the reserpine per 0.05 ml cream, applied transdermally by rubbing the cream into the skin once a day in the morning.
The patient then started the treatment of the present invention, using 0.01 mg of the MAO-A activity stimulator (reserpine) per 0.05 ml cream, applied transdermally by rubbing the cream into the skin once a day in the morning.

[3] = in the human body; cited from earlier work
[4] = system: patient diagnosed with chronic schizophrenia; assay: Case example: patient with chronic schizophrenia, transdermal reserpine spray (with prior medication history); type: in vivo, human
[5] = ASD Example Three, 0.01 mg per day
[6] = ASD Example Three, continued 0.01 mg per day
[7] = ASD Example Two, 0.01 mg per day
[8] = Schizophrenia Example One, first day
[9] = Schizophrenia Example One, fourth day
[10] = Schizophrenia Example One, next 2 days

effect of starting dose (patient with Autism; ASD Example One: person, transdermal, total dose of 0.01 mg): some increased hyperactivity
motor hyperactivity (patient with Autism; ASD Example One, 0.005 mg): mild increase in motor hyperactivity
effect of increased dose (patient with Autism; ASD Example Two, 0.015 mg per day, off gluten free diet): very hyperactive and aggressive
course of headache after dose reduction ([2]; human, in vivo): resolved immediately
time to onset of feeling severely depressed after rubbing the spray into skin ([4]; Schizophrenia Example One, first application): ≤ 30 s
behavior when required calcium was not taken ([4]; Schizophrenia Example One, sixth day, 2,000 mg calcium omitted): became very aggressive
effect on blood calcium without additional calcium ([4]; without taking additional calcium daily): can cause hypocalcemia
SMILES: COC(=O)[C@H]1[C@H]2C[C@@H]3c4[nH]c5cc(OC)ccc5c4CCN3C[C@H]2C[C@@H](OC(=O)c2cc(OC)c(OC)c(OC)c2)[C@@H]1OC [reserpine]
effect on MAO-A (MAO-A): activate MAO-A
effect of low dose in schizophrenia (schizophrenic patients): resembling more an inert substance than the drug
change in quantitative Electroencephalogram ([1]; after three weeks of treatment (FIG. 5)): significant change in their quantitative Electroencephalogram
High Beta activity in qEEG ([1]; increased after starting HBOT, after starting transdermal reserpine): appears to subside
effect on aldehyde dehydrogenase (aldehyde dehydrogenase): inhibit aldehyde dehydrogenase
temper outbursts during the course of treatment (patient with Autism; ASD Example One, 0.005 mg, no quetiapine administration needed): no temper outbursts
anxiety (patient with Autism; ASD Example One, after three weeks of treatment): markedly decreased amount of anxiety
social interactions, language and attention (patient with Autism; ASD Example One, after three weeks, reduced dose 0.005 mg transdermal): significant improvements in their social interactions, language, and attention; also recorded: started using several meaningful sentences in succession
“stimming” (banging of the plastic sticks) (patient with Autism; ASD Example Three: person, transdermal reserpine 0.01 mg per day, immediately): reduced to only infrequent occurrence
speech after 2 months (patient with Autism; ASD Example Three, 0.01 mg): shouted out very clearly the words, “I'm hungry”
behavior by the second day of administration (patient with Autism; [5]): left their clothes on without supervision
social response and language comprehension (parents' report) (patient with Autism; [5]): will now look at them and smile when spoken to and appears to understand language better
speech within the first 30 days (patient with Autism; [5]): started making some new speech sounds
continued course (patient with Autism; [6]): subtle slow improvements in social behavior, speech, attention span, and awareness and interaction with their environment
side effects (patient with Autism; [6]): without any side effects
attention span (patient with Autism; ASD Example Two: person, transdermal reserpine 0.01 mg per day, immediately): increase attention span
affectionate behavior (patient with Autism; [7]): become more affectionate toward their parents and grandparents
speech (patient with Autism; [7]): all of their speech is clear and comprehensible
time they could stay focused on a task (patient with Autism; [7]): ≥ 30 min
outcome after dose decreased back (patient with Autism; ASD Example Two, back to 0.01 mg per day, off gluten free diet): maintained their improvements in speech, social behavior, and attention span
outcome of prior reserpine treatment (patient with Autism; Homeopathic Example One: person): Substantial improvements
outcome of prior reserpine treatment (patient with Autism; Homeopathic Example Two: person): substantial improvement
urinary calcium excretion (patient with Autism; as a result of reserpine administration): increase in the amount of calcium excreted in the urine
average optimum dose (Autistic children; Lehman et al 1957, oral): 5 mg per day
optimum dose (Autistic children; Lehman et al 1957, oral, improvements only within this range, per day): 3 to 7 mg
effectiveness in autism (Autistic children; Macready 2001, doses of 0.25-1.8 mg/day): may be effective in autism
effect on symptoms of depression ([2]; Depression Example Five, 0.002 mg, other symptoms persisted): alleviation of their symptoms of feeling hopelessness and “doom and gloom”
effect on symptoms of depression ([2]; Depression Example Five, 0.004 mg, third day, fatigue and insomnia still experienced): improvement in their emotions
effect on symptoms of depression ([2]; Depression Example Five, 0.006 mg per day): all of the patient's symptoms of depression were successfully alleviated
return of symptoms on long-term treatment ([2]; Depression Example Five, eight consecutive months, 0.006 mg per day transdermally): no return of the symptoms of depression
time to resolution of fatigue and loss of energy after first dose ([2]; Depression Example Four: person, 0.01 mg of reserpine per 0.05 ml cream transdermally once a day, nortriptyline discontinued): one
outcome after dose increase during stressful event ([2]; Depression Example Four, 0.02 mg for one week): insomnia and fatigue resolved
return of symptoms on long-term treatment ([2]; Depression Example Four, 10 months of consecutive daily treatment, 0.01 mg): no return of the symptoms listed above
outcome after return to the lower dose ([2]; Depression Example Four, returned to 0.01 mg dose): no return of any symptoms of depression
time to significant improvement in state of mind after first application ([2]; Depression Example One: 250-pound person, 0.01 mg of reserpine per 0.05 ml of transdermal cream once a day): four
weight lost during the treatment ([2]; Depression Example One, 0.01 mg transdermal once a day): > 20 pounds
status of prior symptoms of depression on continued treatment ([2]; Depression Example One, 0.01 mg transdermal, consecutive 24-hour dosing regimen): remains free of all of the prior symptoms
time from last dose to beginning return of symptoms ([2]; Depression Example One, dose forgotten for a day): about 32 hours
time to freedom from all symptoms after applying the missed dose ([2]; Depression Example One, dose missed for 72 hours): one
marijuana use during the treatment ([2]; Depression Example Three): has not used any marijuana during the treatment
time to resolution of pessimism and negative mood aspects after first dose ([2]; Depression Example Three: 220-pound person, depression and substance abuse, 0.01 mg of reserpine per 0.05 ml of cream transdermally once a day): two
cravings for substances of abuse ([2]; Depression Example Three, after first dose 0.01 mg): no cravings for marijuana or alcohol
outcome after dose decrease ([2]; Depression Example Three, dose decreased to 0.0075 mg of reserpine): symptoms resolved that same day
weight lost ([2]; Depression Example Three, first 60 days): five
weight loss after resuming the treatment ([2]; Depression Example Two): 1-2 pound per week
time to increased energy after applying the dose ([2]; Depression Example Two: 175-pound person, 0.01 mg of reserpine per 0.05 ml of cream transdermally once a day): one
time to resolution of all perceptible symptoms after first application (except slight problems with memory) ([2]; Depression Example Two, 0.01 mg transdermal): ≤ 10 h
return of symptoms during treatment ([2]; Depression Example Two, 30 consecutive days): no return of their symptoms
time to resolution of symptoms after resuming the treatment ([2]; Depression Example Two, after 10 day interruption): one
total weight lost ([2]; Depression Example Two, first 50 days): 15 pounds
symptoms during interruption of treatment ([2]; Depression Example Two, treatment interrupted for 10 days): all of the symptoms returned
time to improvement or resolution of symptoms after first application ([2]; each of the depression examples): 1 to 4 h
effect of too high a dose ([2]; human, in vivo): undesirable increase in the symptoms of depression
negative side effects ([2]; human, in vivo): no significant negative side effects
side effect at starting dose ([2]; human, in vivo): headache that did not resolve spontaneously the first day
therapeutic half-life [3]: 33 h
side effects after first application ([4]; Schizophrenia Example One: person, transdermal reserpine via metered sprayer on forearm, Abilify stopped the day before): feeling severely depressed; also recorded: rapid heart rate, and anxiety
effect on symptoms of schizophrenia (report) [4, 8]: more focused, they had clearer thoughts
time to resolution of side effect symptoms after applying the spray [4, 8]: 2 to 3 h
side effects [4, 9]: none of these side effect symptoms occurred
task completion [4, 9]: completed a list of chores that they gave them without supervision
severity of returning side effects [4, 10]: slightly less severe
time to resolution of side effect symptoms after applying the dose [4, 10]: ≤ 2 h
